Measurements published in ChEMBL document CHEMBL4823282, “Novel Broad-Spectrum Antimicrobial Peptide Derived from Anoplin and Its Activity on Bacterial Pneumonia in Mice” (J Med Chem, 2021).
In brackets after ≈: the same amount, converted by molar mass. Where a SMILES comes first, the peptide text is derived from it.

Key:
Staphylococcus aureus = experiment: Antibacterial activity against Staphylococcus aureus ATCC 25923 incubated for 18 hrs by CLSI based broth dilution method; assay type: functional
Bacillus subtilis = experiment: Antibacterial activity against Bacillus subtilis ATCC 23857 incubated for 18 hrs by CLSI based broth dilution method; assay type: functional
Enterococcus faecalis = experiment: Antibacterial activity against Enterococcus faecalis ATCC 29212 incubated for 18 hrs by CLSI based broth dilution method; assay type: functional
[1] = tested on: Staphylococcus epidermidis; experiment: Antibacterial activity against Staphylococcus epidermidis ATCC 12228 incubated for 18 hrs by CLSI based broth dilution method; assay type: functional
Escherichia coli = experiment: Antibacterial activity against Escherichia coli ATCC 25922 incubated for 18 hrs by CLSI based broth dilution method; assay type: functional
Pseudomonas aeruginosa [2] = experiment: Antibacterial activity against Pseudomonas aeruginosa ATCC 27853 incubated for 18 hrs by CLSI based broth dilution method; assay type: functional
Klebsiella pneumoniae = experiment: Antibacterial activity against Klebsiella pneumoniae ATCC 700603 incubated for 18 hrs by CLSI based broth dilution method; assay type: functional
Acinetobacter baumannii = experiment: Antibacterial activity against Acinetobacter baumannii ATCC 19606 incubated for 18 hrs by CLSI based broth dilution method; assay type: functional; conditions: ATCC 19606 = CIP 70.34 = JCM 6841
Erythrocyte = experiment: Hemolytic activity in BALB/C mouse erythrocytes incubated for 1 hr by absorbance method; assay type: ADME, cell-based
[3] = Cytotoxicity against human glomerular mesangial cells incubated for 12 hrs by MTT assay; assay type: cell-based; conditions: Glomerular mesangial cell
Bacteria [4] = experiment: Antibacterial activity against bacteria incubated for 18 hrs by CLSI based broth dilution method; assay type: functional
Fungi = experiment: Antibacterial activity against fungi incubated for 18 hrs by CLSI based broth dilution method; assay type: functional
[5] = Selectivity ratio of MHC10 for BALB/C mouse erythrocytes to MIC for bacteria; assay type: toxicity
[6] = Selectivity ratio of MHC10 for BALB/C mouse erythrocytes to MIC for fungi; assay type: toxicity
Bacteria [7] = experiment: Antibacterial activity against Gram-positive bacteria incubated for 18 hrs by CLSI based broth dilution method; assay type: functional
[8] = Selectivity ratio of MHC10 for BALB/C mouse erythrocytes to MIC for gram positive bacteria; assay type: toxicity
Bacteria [9] = experiment: Antibacterial activity against Gram-negative bacteria incubated for 18 hrs by CLSI based broth dilution method; assay type: functional
[10] = Selectivity ratio of MHC10 for BALB/C mouse erythrocytes to MIC for gram-negative bacteria; assay type: toxicity
Pseudomonas aeruginosa [11] = experiment: Synergistic antibacterial activity against Pseudomonas aeruginosa ATCC 27853 at 2 times MIC incubated for 18 to 24 hrs in presence of 2 times MIC of rifampicin by broth microdilution assay based checkerboard assay; assay type: functional; conditions: time 18-24 hrs
Pseudomonas aeruginosa [12] = experiment: Synergistic antibacterial activity against Pseudomonas aeruginosa ATCC 27853 at 2 times MIC incubated for 18 to 24 hrs in presence of 2 times MIC of polymyxin B by broth microdilution assay based checkerboard assay; assay type: functional; conditions: time 18-24 hrs

SMILES | MIC (Staphylococcus aureus) [µM] | MIC (Bacillus subtilis) [µM] | MIC (Enterococcus faecalis) [µM] | MIC [1] [µM] | MIC (Escherichia coli) [µM] | MIC (Pseudomonas aeruginosa [2]) [µM] | MIC (Klebsiella pneumoniae) [µM] | MIC (Acinetobacter baumannii) [µM] | MIC (Bacteria [4]) [µM] | MIC (Fungi) [µM] | MIC (Bacteria [7]) [µM] | MIC (Bacteria [9]) [µM] | MHC10 (Erythrocyte) | IC50 [3] [µM] | selectivity ratio [5] | selectivity ratio [6] | selectivity ratio at 18 h [8] | selectivity ratio [10] | FIC (Pseudomonas aeruginosa [11]) | FIC (Pseudomonas aeruginosa [12])
CC(C)C[C@H](NC(=O)[C@H](C)NC(=O)[C@@H](NC(=O)[C@H](CCCCN)NC(=O)[C@H](C)NC(=O)[C@H](CCCNC(=N)N)NC(=O)[C@H](CCCCN)NC(=O)[C@H](C)NC(=O)[C@H](C)NC(=O)CN)[C@@H](C)O)C(N)=O (H-GAAKRAKTAL-NH2) | ≥ 512 | ≥ 512 | ≥ 512 | ≥ 512 | ≥ 512 | ≥ 512 | ≥ 512 | ≥ 512 | ≥ 512 | ≥ 512 | ≥ 512 | ≥ 512 | >= 512 uM | ≥ 512 | 1 | 1 | 1 | 1 | – | –
CC(C)C[C@H](NC(=O)[C@H](CC(C)C)NC(=O)[C@@H](NC(=O)[C@H](CCCCN)NC(=O)[C@H](C)NC(=O)[C@H](CCCNC(=N)N)NC(=O)[C@H](CCCCN)NC(=O)[C@H](C)NC(=O)[C@H](CC(C)C)NC(=O)CN)[C@@H](C)O)C(N)=O (H-GLAKRAKTLL-NH2) | ≥ 512 | ≥ 512 | ≥ 512 | ≥ 512 | ≥ 512 | ≥ 512 | ≥ 512 | ≥ 512 | ≥ 512 | ≥ 512 | ≥ 512 | ≥ 512 | >= 512 uM | ≥ 512 | 1 | 1 | 1 | 1 | – | –

More lines, main results first:

MIC (Staphylococcus aureus) [µM] | MIC (Bacillus subtilis) [µM] | MIC (Enterococcus faecalis) [µM] | MIC [1] [µM] | MIC (Escherichia coli) [µM] | MIC (Pseudomonas aeruginosa [2]) [µM] | MIC (Klebsiella pneumoniae) [µM] | MIC (Acinetobacter baumannii) [µM] | MIC (Bacteria [4]) [µM] | MIC (Fungi) [µM] | MIC (Bacteria [7]) [µM] | MIC (Bacteria [9]) [µM] | SMILES | MHC10 (Erythrocyte) | IC50 [3] [µM] | selectivity ratio [5] | selectivity ratio [6] | selectivity ratio at 18 h [8] | selectivity ratio [10] | FIC (Pseudomonas aeruginosa [11]) | FIC (Pseudomonas aeruginosa [12])
16 (≈ 23 µg/mL) | 16 (≈ 23 µg/mL) | 64 (≈ 92.1 µg/mL) | 128 (≈ 184 µg/mL) | 16 (≈ 23 µg/mL) | 16 (≈ 23 µg/mL) | 32 (≈ 46 µg/mL) | 128 (≈ 184 µg/mL) | 32 (≈ 46 µg/mL) | 32 (≈ 46 µg/mL) | 38.1 (≈ 54.8 µg/mL) | – | CC[C@H](C)[C@H](NC(=O)[C@H](CCCNC(=N)N)NC(=O)[C@H](CCCCN)NC(=O)[C@H](Cc1ccccc1)NC(=O)[C@H](Cc1c[nH]c2ccccc12)NC(=O)[C@@H](N)CCCCN)C(=O)N[C@@H](CCCCN)C(=O)N[C@H](C(=O)N[C@@H](Cc1ccccc1)C(=O)N[C@@H](Cc1c[nH]c2ccccc12)C(N)=O)[C@@H](C)O (H-KWFKRIKTFW-NH2) | >= 512 uM | 80.2 | 16 | 16 | 13.4 | 19 | 0.3125 | 0.25
16 (≈ 21.1 µg/mL) | 16 (≈ 21.1 µg/mL) | 64 (≈ 84.3 µg/mL) | 64 (≈ 84.3 µg/mL) | 32 (≈ 42.2 µg/mL) | 32 (≈ 42.2 µg/mL) | 32 (≈ 42.2 µg/mL) | 64 (≈ 84.3 µg/mL) | 26.9 (≈ 35.5 µg/mL) | 26.9 (≈ 35.5 µg/mL) | 32 (≈ 42.2 µg/mL) | – | CC[C@H](C)[C@H](NC(=O)[C@H](CCCNC(=N)N)NC(=O)[C@H](CCCCN)NC(=O)[C@H](Cc1ccccc1)NC(=O)[C@H](Cc1ccccc1)NC(=O)CN)C(=O)N[C@@H](CCCNC(=N)N)C(=O)N[C@H](C(=O)N[C@@H](Cc1ccccc1)C(=O)N[C@@H](Cc1ccccc1)C(N)=O)[C@@H](C)O (H-GFFKRIRTFF-NH2) | >= 512 uM | 88.9 | 19 | 19 | 16 | 22.6 | 0.5625 | 0.5625
≥ 512 | ≥ 512 | ≥ 512 | ≥ 512 | ≥ 512 | ≥ 512 | ≥ 512 | ≥ 512 | ≥ 512 | ≥ 512 | ≥ 512 | ≥ 512 | CC(C)C[C@H](NC(=O)[C@H](C)NC(=O)[C@@H](NC(=O)[C@H](CCCCN)NC(=O)[C@H](C)NC(=O)[C@H](CCCNC(=N)N)NC(=O)[C@H](CCCCN)NC(=O)[C@H](CC(C)C)NC(=O)[C@H](C)NC(=O)CN)[C@@H](C)O)C(N)=O (H-GALKRAKTAL-NH2) | >= 512 uM | ≥ 512 | 1 | 1 | 1 | 1 | – | –
